Data from article PMC5218480 (PLoS ONE, 2017).

System: MV-4-11 cells
Experiment: Gene expression microarray analysis (Affymetrix PrimeView) and GSEA
Assay type: cell-based, human
Set-up: RFU PODN (11730768_x_at) / Fold change /veh PODN (11730768_x_at) / RFU LINC00158 (11744669_a_at) / Fold change /veh LINC00158 (11744669_a_at) / RFU DUSP10 (11751237_a_at) / Fold change /veh DUSP10 (11751237_a_at) / RFU ID3 (11757404_x_at) / Fold change /veh ID3 (11757404_x_at) / RFU PLEKHG5 (11737974_s_at) / Fold change /veh PLEKHG5 (11737974_s_at) / RFU LRRC4B (11730491_at) / Fold change /veh LRRC4B (11730491_at) / RFU GIMAP4 (11747438_a_at) / Fold change /veh GIMAP4 (11747438_a_at) / RFU KRT8 (11758183_x_at) / Fold change /veh KRT8 (11758183_x_at) / RFU CNN1 (11734310_a_at) / Fold change /veh CNN1 (11734310_a_at) / RFU VPS37D (11726825_at) / Fold change /veh VPS37D (11726825_at) / RFU C10orf10 (11716522_x_at) / Fold change /veh C10orf10 (11716522_x_at) / RFU KIR2DL2 /// KIR2DL4 /// KIR2DL5A /// KIR2DL5B /// KIR2DS1 /// KIR2DS2 /// KIR2DS3 /// KIR2DS4 /// KIR3DL3 /// KIR3DL3 /// KIR3DS1 (11738374_at) / Fold change /veh KIR2DL2 /// KIR2DL4 /// KIR2DL5A /// KIR2DL5B /// KIR2DS1 /// KIR2DS2 /// KIR2DS3 /// KIR2DS4 /// KIR3DL3 /// KIR3DL3 /// KIR3DS1 (11738374_at) / RFU C1QL1 (11718748_at) / Fold change /veh C1QL1 (11718748_at) / RFU TMPRSS4 (11747572_a_at) / Fold change /veh TMPRSS4 (11747572_a_at) / RFU HAMP (11756126_x_at) / Fold change /veh HAMP (11756126_x_at) / RFU RNFT2 (11725882_a_at) / Fold change /veh RNFT2 (11725882_a_at) / RFU NR4A2 (11747474_a_at) / Fold change /veh NR4A2 (11747474_a_at) / RFU ABCC12 (11746883_a_at) / Fold change /veh ABCC12 (11746883_a_at) / RFU TMEM136 (11760407_x_at) / Fold change /veh TMEM136 (11760407_x_at) / RFU CLDN22 /// WWC2 (11732394_at) / Fold change /veh CLDN22 /// WWC2 (11732394_at) / RFU HLA-DPB1 (11760878_x_at) / Fold change /veh HLA-DPB1 (11760878_x_at) / RFU SPINT1 (11716480_a_at) / Fold change /veh SPINT1 (11716480_a_at) / RFU GAP43 (11754022_s_at) / Fold change /veh GAP43 (11754022_s_at) / RFU A4GNT (11735810_at) / Fold change /veh A4GNT (11735810_at) / RFU PRB3 (11715151_x_at) / Fold change /veh PRB3 (11715151_x_at) / RFU TUBB4B (11761932_at) / Fold change /veh TUBB4B (11761932_at) / RFU CAPN14 (11732068_a_at) / Fold change /veh CAPN14 (11732068_a_at) / RFU TMCC2 (11721928_a_at) / Fold change /veh TMCC2 (11721928_a_at) / RFU IRGQ (11745062_a_at) / Fold change /veh IRGQ (11745062_a_at) / RFU FAM174B (11720279_a_at) / Fold change /veh FAM174B (11720279_a_at) / RFU TMPRSS4 (11748680_a_at) / Fold change /veh TMPRSS4 (11748680_a_at) / RFU FAM212B (11763350_a_at) / Fold change /veh FAM212B (11763350_a_at) / RFU PLEKHG5 (11743358_a_at) / Fold change /veh PLEKHG5 (11743358_a_at) / RFU ZSCAN30 (11745921_a_at) / Fold change /veh ZSCAN30 (11745921_a_at) / RFU CMKLR1 (11741424_a_at) / Fold change /veh CMKLR1 (11741424_a_at) / RFU LOC101060620 /// MAPK8IP1 (11723275_at) / Fold change /veh LOC101060620 /// MAPK8IP1 (11723275_at) / RFU SPTSSB (11747773_x_at) / Fold change /veh SPTSSB (11747773_x_at) / RFU PRSS12 (11739890_at) / Fold change /veh PRSS12 (11739890_at) / RFU BIN1 (11741810_x_at) / Fold change /veh BIN1 (11741810_x_at) / RFU WNT11 (11732464_a_at) / Fold change /veh WNT11 (11732464_a_at) / RFU C10orf10 (11716521_a_at) / Fold change /veh C10orf10 (11716521_a_at) / RFU C5orf56 (11738089_at) / Fold change /veh C5orf56 (11738089_at) / RFU CYB561 (11721691_x_at) / Fold change /veh CYB561 (11721691_x_at) / RFU ANKRD19P (11752326_a_at) / Fold change /veh ANKRD19P (11752326_a_at) / RFU OR2T12 /// OR2T33 /// OR2T8 (11738714_s_at) / Fold change /veh OR2T12 /// OR2T33 /// OR2T8 (11738714_s_at) / RFU VCAN (11748164_a_at) / Fold change /veh VCAN (11748164_a_at) / RFU JSRP1 (11732532_at) / Fold change /veh JSRP1 (11732532_at) / RFU KRTAP10-11 (11738290_x_at) / Fold change /veh KRTAP10-11 (11738290_x_at) / RFU MYO3A (11730013_a_at) / Fold change /veh MYO3A (11730013_a_at) / RFU EBF3 (11725865_a_at) / Fold change /veh EBF3 (11725865_a_at) / RFU CAMK2N1 (11719241_x_at) / Fold change /veh CAMK2N1 (11719241_x_at) / RFU C5orf56 (11738088_a_at) / Fold change /veh C5orf56 (11738088_a_at) / RFU OLFML3 (11715873_a_at) / Fold change /veh OLFML3 (11715873_a_at) / RFU LOC100653217 /// NTM (11731650_a_at) / Fold change /veh LOC100653217 /// NTM (11731650_a_at) / RFU MAPK11 (11762145_a_at) / Fold change /veh MAPK11 (11762145_a_at) / RFU FIZ1 (11724087_x_at) / Fold change /veh FIZ1 (11724087_x_at) / RFU OASL (11726364_x_at) / Fold change /veh OASL (11726364_x_at) / RFU SOX15 (11748057_x_at) / Fold change /veh SOX15 (11748057_x_at) / RFU CD79A (11719716_a_at) / Fold change /veh CD79A (11719716_a_at) / RFU HIST1H1D (11736915_at) / Fold change /veh HIST1H1D (11736915_at) / RFU CASKIN2 (11723855_a_at) / Fold change /veh CASKIN2 (11723855_a_at) / RFU LOC730098 (11760151_x_at) / Fold change /veh LOC730098 (11760151_x_at) / RFU OR4N2 (11742367_at) / Fold change /veh OR4N2 (11742367_at) / RFU PRRT2 (11749266_a_at) / Fold change /veh PRRT2 (11749266_a_at) / RFU SNX32 (11753110_a_at) / Fold change /veh SNX32 (11753110_a_at) / RFU CDHR5 (11726645_a_at) / Fold change /veh CDHR5 (11726645_a_at) / RFU RCAN1 (11760418_a_at) / Fold change /veh RCAN1 (11760418_a_at) / RFU FAM167A (11723789_a_at) / Fold change /veh FAM167A (11723789_a_at) / RFU FAM26E (11764081_at) / Fold change /veh FAM26E (11764081_at) / RFU ISYNA1 (11749810_s_at) / Fold change /veh ISYNA1 (11749810_s_at) / RFU ACY1 (11761880_at) / Fold change /veh ACY1 (11761880_at) / RFU 11764098_at / Fold change /veh 11764098_at / RFU SAMD14 (11745864_x_at) / Fold change /veh SAMD14 (11745864_x_at) / RFU NPB (11741838_a_at) / Fold change /veh NPB (11741838_a_at) / RFU TMPRSS6 (11731388_a_at) / Fold change /veh TMPRSS6 (11731388_a_at) / RFU KRTAP10-2 (11738614_at) / Fold change /veh KRTAP10-2 (11738614_at) / RFU ARHGAP8 /// PRR5-ARHGAP8 (11727945_x_at) / Fold change /veh ARHGAP8 /// PRR5-ARHGAP8 (11727945_x_at) / RFU KRTAP5-7 /// NADSYN1 (11734609_at) / Fold change /veh KRTAP5-7 /// NADSYN1 (11734609_at) / RFU RASL12 (11751679_a_at) / Fold change /veh RASL12 (11751679_a_at) / RFU CDKN2B (11736163_a_at) / Fold change /veh CDKN2B (11736163_a_at) / RFU PRF1 (11729649_at) / Fold change /veh PRF1 (11729649_at) / RFU, ZNF638 /// ZNF638-IT1 / Fold change vs veh, ZNF638 /// ZNF638-IT1 / RFU, PANK3 / Fold change vs veh, PANK3 / RFU, SH3YL1 / Fold change vs veh, SH3YL1 / RFU, ZEB2 / Fold change vs veh, ZEB2 / RFU, NRIP1 / Fold change vs veh, NRIP1 / RFU, PTTG1IP / Fold change vs veh, PTTG1IP / RFU, CAPN2 / Fold change vs veh, CAPN2 / RFU, MED14 / Fold change vs veh, MED14 / RFU, SNORA58 / Fold change vs veh, SNORA58 / RFU, C1orf63 / Fold change vs veh, C1orf63 / RFU, LRRFIP1 / Fold change vs veh, LRRFIP1 / RFU, NDUFAF7 / Fold change vs veh, NDUFAF7 / RFU, SLC12A2 / Fold change vs veh, SLC12A2 / RFU, IBTK / Fold change vs veh, IBTK / RFU, ESF1 / Fold change vs veh, ESF1 / Fold change vs veh, TMEM50B / RFU, TAOK1 / Fold change vs veh, TAOK1 / RFU, ACBD3 / Fold change vs veh, ACBD3 / RFU, TMA16 / Fold change vs veh, TMA16 / RFU, RWDD3 / Fold change vs veh, RWDD3 / RFU, BCAT1 / Fold change vs veh, BCAT1 / RFU, EDEM3 / Fold change vs veh, EDEM3 / RFU, TMEM33 / Fold change vs veh, TMEM33 / RFU, WDR75 / Fold change vs veh, WDR75 / RFU, AHCTF1 / Fold change vs veh, AHCTF1 / RFU, TFRC / Fold change vs veh, TFRC / RFU, ZDHHC17 / Fold change vs veh, ZDHHC17 / RFU, NOM1 / Fold change vs veh, NOM1 / RFU, ARL8B / Fold change vs veh, ARL8B / RFU, ZBTB11 / Fold change vs veh, ZBTB11 / RFU, TAMM41 / Fold change vs veh, TAMM41 / RFU, KIAA1704 /// LOC100996395 / Fold change vs veh, KIAA1704 /// LOC100996395 / RFU, ING1 / Fold change vs veh, ING1 / RFU, TRMT61B / Fold change vs veh, TRMT61B / RFU, FUBP3 / Fold change vs veh, FUBP3 / RFU, TP53 / Fold change vs veh, TP53 / RFU, TNKS2 / Fold change vs veh, TNKS2 / RFU, ZFP14 / Fold change vs veh, ZFP14 / RFU, ACTR2 / Fold change vs veh, ACTR2 / RFU, PPP3R1 / Fold change vs veh, PPP3R1 / RFU, PIK3R1 / Fold change vs veh, PIK3R1 / RFU, HNRNPA1 / Fold change vs veh, HNRNPA1 / RFU, RNF170 / Fold change vs veh, RNF170 / RFU, ZNF28 / Fold change vs veh, ZNF28 / RFU, RNGTT / Fold change vs veh, RNGTT / RFU, OGT / Fold change vs veh, OGT / RFU, BRD1 / Fold change vs veh, BRD1 / RFU, MARS / Fold change vs veh, MARS / RFU, ZNF655 / Fold change vs veh, ZNF655 / RFU, FAHD1 / Fold change vs veh, FAHD1 / RFU, BDP1 / Fold change vs veh, BDP1 / RFU, LRRCC1 / Fold change vs veh, LRRCC1 / RFU, ARID1A / Fold change vs veh, ARID1A / RFU, ZNF146 / Fold change vs veh, ZNF146 / RFU, ZNF330 / Fold change vs veh, ZNF330 / RFU, GPN3 / Fold change vs veh, GPN3 / RFU, C9orf123 / Fold change vs veh, C9orf123 / RFU, N4BP2L2 / Fold change vs veh, N4BP2L2 / RFU, ARFIP1 / Fold change vs veh, ARFIP1 / RFU, FAM179B / Fold change vs veh, FAM179B / RFU, BCL10 / Fold change vs veh, BCL10 / RFU, UHRF1BP1L / Fold change vs veh, UHRF1BP1L / RFU, BET1 / Fold change vs veh, BET1 / RFU, CNOT2 / Fold change vs veh, CNOT2 / RFU, ZNF268 / Fold change vs veh, ZNF268 / Fold change vs veh, ZNF507 / RFU, DGCR2 / Fold change vs veh, DGCR2 / RFU, WDSUB1 / Fold change vs veh, WDSUB1 / Fold change vs veh, HSP90B1 /// MIR3652 / RFU, ADSS / Fold change vs veh, ADSS / RFU, GK / Fold change vs veh, GK / RFU, ZNF148 / Fold change vs veh, ZNF148 / RFU, TAF9 / Fold change vs veh, TAF9 / RFU, SLC1A5 / Fold change vs veh, SLC1A5 / RFU, SLMO2 / Fold change vs veh, SLMO2 / RFU, ABCC4 / Fold change vs veh, ABCC4 / RFU, LOC101060439 /// RAP1B / Fold change vs veh, LOC101060439 /// RAP1B / RFU, RFX7 / Fold change vs veh, RFX7 / RFU, GTPBP10 / Fold change vs veh, GTPBP10 / RFU, CNEP1R1 / Fold change vs veh, CNEP1R1 / RFU, BIVM-ERCC5 /// ERCC5 / Fold change vs veh, BIVM-ERCC5 /// ERCC5 / RFU, ILF3 / Fold change vs veh, ILF3 / RFU 11762660_at / Fold change /veh 11762660_at / RFU VCAN (11757783_s_at) / Fold change /veh VCAN (11757783_s_at) / RFU DDX43 (11728927_at) / Fold change /veh DDX43 (11728927_at) / RFU KRT8 (11758188_x_at) / Fold change /veh KRT8 (11758188_x_at) / RFU NKD1 (11759106_at) / Fold change /veh NKD1 (11759106_at) / RFU SRD5A1 (11742802_a_at) / Fold change /veh SRD5A1 (11742802_a_at) / RFU TPSAB1 /// TPSB2 (11721975_s_at) / Fold change /veh TPSAB1 /// TPSB2 (11721975_s_at) / RFU GSTM3 (11746129_a_at) / Fold change /veh GSTM3 (11746129_a_at) / RFU IL23R (11737362_x_at) / Fold change /veh IL23R (11737362_x_at) / RFU TMEM51 (11727254_a_at) / Fold change /veh TMEM51 (11727254_a_at) / RFU PIWIL2 (11732686_x_at) / Fold change /veh PIWIL2 (11732686_x_at) / RFU ORM1 (11744905_x_at) / Fold change /veh ORM1 (11744905_x_at) / RFU CCDC152 (11743942_at) / Fold change /veh CCDC152 (11743942_at) / RFU ECM1 (11717891_a_at) / Fold change /veh ECM1 (11717891_a_at) / RFU IL23R (11748794_a_at) / Fold change /veh IL23R (11748794_a_at) / RFU TNFAIP8L3 (11732012_x_at) / Fold change /veh TNFAIP8L3 (11732012_x_at) / RFU MBOAT4 (11741988_at) / Fold change /veh MBOAT4 (11741988_at) / RFU 11764193_at / Fold change /veh 11764193_at / RFU TMEM53 (11763286_at) / Fold change /veh TMEM53 (11763286_at) / RFU MAGEB2 (11727129_at) / Fold change /veh MAGEB2 (11727129_at) / RFU TMEM200A (11744735_a_at) / Fold change /veh TMEM200A (11744735_a_at) / RFU CCDC152 (11751479_a_at) / Fold change /veh CCDC152 (11751479_a_at) / RFU FAM211A (11726209_a_at) / Fold change /veh FAM211A (11726209_a_at) / RFU RGS16 (11746705_a_at) / Fold change /veh RGS16 (11746705_a_at) / RFU VCAN (11755009_s_at) / Fold change /veh VCAN (11755009_s_at) / RFU RHOB (11743442_s_at) / Fold change /veh RHOB (11743442_s_at) / RFU RGS16 (11720943_a_at) / Fold change /veh RGS16 (11720943_a_at) / RFU RGS16 (11720944_at) / Fold change /veh RGS16 (11720944_at) / RFU, VPS4B / Fold change vs veh, VPS4B / RFU, CREB1 / Fold change vs veh, CREB1 / RFU, DNAJC13 / Fold change vs veh, DNAJC13 / RFU, GNAQ / Fold change vs veh, GNAQ / RFU, CDK5R1 / Fold change vs veh, CDK5R1 / RFU, ZRANB3 / Fold change vs veh, ZRANB3 / RFU, CUL4A / Fold change vs veh, CUL4A / RFU, CCNY / Fold change vs veh, CCNY / RFU, UFL1 / Fold change vs veh, UFL1 / RFU, COG3 / Fold change vs veh, COG3 / RFU, DIAPH2 / Fold change vs veh, DIAPH2 / RFU, SKA2 / Fold change vs veh, SKA2 / RFU, AFF3 / Fold change vs veh, AFF3 / RFU, LMF1 / Fold change vs veh, LMF1 / RFU, IPO11 / Fold change vs veh, IPO11 / RFU, DFFB / Fold change vs veh, DFFB / RFU, FOXP1 / Fold change vs veh, FOXP1 / RFU, CARD8 / Fold change vs veh, CARD8 / RFU, STRN3 / Fold change vs veh, STRN3 / RFU, ADK / Fold change vs veh, ADK / RFU, RASSF2 / Fold change vs veh, RASSF2 / RFU, WIPF1 / Fold change vs veh, WIPF1 / RFU, LARP1B / Fold change vs veh, LARP1B / RFU, RASA1 / Fold change vs veh, RASA1 / RFU, RB1 / Fold change vs veh, RB1 / RFU, PPFIA1 / Fold change vs veh, PPFIA1 / RFU, MAT2A / Fold change vs veh, MAT2A / RFU, CCT5 / Fold change vs veh, CCT5 / RFU, WDR92 / Fold change vs veh, WDR92 / RFU, CUX1 / Fold change vs veh, CUX1 / RFU, TTC7A / Fold change vs veh, TTC7A / RFU, TMEM135 / Fold change vs veh, TMEM135 / RFU, DEPTOR / Fold change vs veh, DEPTOR / RFU, CPM / Fold change vs veh, CPM / RFU, DNAJB6 / Fold change vs veh, DNAJB6 / RFU, CACNA2D3 / Fold change vs veh, CACNA2D3 / RFU, DTX4 / Fold change vs veh, DTX4 / RFU, TFCP2 / Fold change vs veh, TFCP2 / RFU, GMCL1 /// GMCL1P1 / Fold change vs veh, GMCL1 /// GMCL1P1 / RFU, AEBP2 / Fold change vs veh, AEBP2 / RFU, SNHG1 /// SNORD22 /// SNORD25 /// SNORD26 /// SNORD27 /// SNORD28 /// SNORD29 /// SNORD31 / Fold change vs veh, SNHG1 /// SNORD22 /// SNORD25 /// SNORD26 /// SNORD27 /// SNORD28 /// SNORD29 /// SNORD31 / Fold change (Aza/veh), C12orf56 (ProbeSet 11735607_a_at) / Fold change (ACY-1035/veh), C12orf56 (ProbeSet 11735607_a_at) / Fold change (Aza/veh), FGFR1OP (ProbeSet 11751329_s_at) / Fold change (ACY-1035/veh), FGFR1OP (ProbeSet 11751329_s_at) / Fold change (Aza/veh), VPS36 (ProbeSet 11739960_a_at) / Fold change (ACY-1035/veh), VPS36 (ProbeSet 11739960_a_at) / RFU SYPL1 (11715823_x_at) / Fold change /veh SYPL1 (11715823_x_at) / RFU IGFBP7 (11715501_s_at) / Fold change /veh IGFBP7 (11715501_s_at) / RFU REEP3 (11722064_at) / Fold change /veh REEP3 (11722064_at) / RFU IGLL1 (11728026_x_at) / Fold change /veh IGLL1 (11728026_x_at): dose or concentration left out as unconfirmed
Settings: ProbeSet 11727545_at; LIST B

## Nc1ccc(-c2cccs2)cc1NC(=O)c1ccc2c(c1)cc(C1CC1)n2CCN1CCOCC1 [ACY-1035]
  Fold change vs veh, PANK3: 0.83
